ChEMBL document CHEMBL5352503, “Nonpeptidic Oxazole-Based Prolyl Oligopeptidase Ligands with Disease-Modifying Effects on α-Synuclein Mouse Models of Parkinson's Disease” (J Med Chem, 2023)

Target: Alpha-synuclein (Homo sapiens) (UniProt P37840)
Assay: Inhibition of alpha-synuclein (unknown origin) dimerization transfected in mouse Neuro2a cells assessed as reduction in aggregation at 10 uM incubated for 4 hrs by split Gaussia luciferase-based assay relative to control; values are per cent of control

residual activity: 100%
Compound: COc1cc(CCc2nc(C)c(N3CCC[C@H]3C#N)o2)cc(OC)c1
